Assay results as given in ChEMBL document CHEMBL1862790, “Optimisation of fenarimol series for the treatment of Chagas disease”.
pIC50: −log10 of the molar value.

Columns and labels:
[1] = system: Trypanosoma cruzi; assay: microbe, parasite or virus in culture; assay type: functional, Tulahuen LacZ, Clone C4; details: Trypanosoma cruzi, Tulahuen LacZ, Clone C4
[2] = system: Trypanosoma cruzi; assay: microbe, parasite or virus in culture; assay type: functional, organism-based, Tulahuen LacZ, Clone C4; details: Trypanosoma cruzi, Tulahuen LacZ, Clone C4
[3] = DNDI: Cytotoxicity against L-6 rat myoblasts from skeletal muscle cells; details: L6 rat skeletal muscle myoblast cells, IC50

Compound: Cc1noc(C)c1C(=O)N1CCC(NC(c2ccc(C(F)(F)F)cc2)c2cncs2)CC1 (centres undefined)
- IC90 [1]: 516 nM
- pIC50 [2]: 6.85
- pIC50 [3]: < 4.00

Compound: CC(C)(C)NC(=O)N1CCC(NC(c2ccc(C(F)(F)F)cc2)c2cncs2)CC1 (centres undefined)
- IC90 [1]: 128 nM
- pIC50 [2]: 7.17
- pIC50 [3]: < 4.00

Compound: N#Cc1ccccc1N1CCC(NC(c2cccnc2)c2ccc(Cl)cc2F)CC1 (centres undefined)
- IC90 [1]: 24.9 nM
- pIC50 [2]: 8.13
- pIC50 [3]: 4.40

Compound: Cc1cnc(N2CCC(NC(c3ccc(C(F)(F)F)cc3)c3cccnc3)CC2)s1 (centres undefined)
- IC90 [1]: 101 nM
- pIC50 [2]: 7.54
- pIC50 [3]: 4.22

Compound: Cc1cc(C(=O)NC2CCN(C(c3ccc(C#N)cc3)c3cccnc3)CC2)nn1C (centres undefined)
- IC90 [1]: 962 nM
- pIC50 [2]: 6.58
- pIC50 [3]: < 4.00

Compound: Cn1ccnc1C(=O)N1CCC(NC(c2ccc(C(F)(F)F)cc2)c2cccnc2)CC1 (centres undefined)
- IC90 [1]: 208 nM
- pIC50 [2]: 7.09
- pIC50 [3]: < 4.00

Compound: OC(c1ccc(C(F)(F)F)cc1)(c1cncc(Cl)c1)c1ccc(Cl)cc1F (centres undefined)
- IC90 [1]: > 1000 nM
- pIC50 [2]: < 6.00
- pIC50 [3]: 4.10

Compound: O=C(c1ccccc1)N1CC(NC(c2ccc(C(F)(F)F)cc2)c2cccnc2)C1 (centres undefined)
- IC90 [1]: 720 nM
- pIC50 [2]: 6.72
- pIC50 [3]: 4.08

Compound: Cc1cc(C(=O)N2CCC(NC(c3ccc(C(F)(F)F)cc3)c3cccnc3)CC2)nn1C (centres undefined)
- IC90 [1]: 268 nM
- pIC50 [2]: 7.18
- pIC50 [3]: 4.23

Compound: CCn1nc(C)cc1C(=O)N1CCC(NC(c2ccc(C(F)(F)F)cc2)c2cccnc2)CC1 (centres undefined)
- IC90 [1]: 206 nM
- pIC50 [2]: 7.15
- pIC50 [3]: < 4.00

Compound: CCn1nc(C)cc1C(=O)NC1CCN(C(c2ccc(C#N)cc2)c2cccnc2)CC1 (centres undefined)
- IC90 [1]: 934 nM
- pIC50 [2]: 6.30
- pIC50 [3]: < 4.00

Compound: N#Cc1ccc(C(c2cccnc2)N2CCC(NC(=O)c3cc[nH]n3)CC2)cc1 (centres undefined)
- IC90 [1]: 917 nM
- pIC50 [2]: 6.35
- pIC50 [3]: < 4.00

Compound: FC(F)(F)c1ccc(C(NC2CCN(c3ncccn3)CC2)c2cscn2)cc1 (centres undefined)
- IC90 [1]: > 1000 nM
- pIC50 [2]: < 6.00
- pIC50 [3]: 4.05

Compound: Cc1ncsc1C(=O)N1CCN(C(c2cccnc2)c2ccc(C(F)(F)F)cc2F)CC1 (centres undefined)
- IC90 [1]: 131 nM
- pIC50 [2]: 7.23
- pIC50 [3]: 4.01

Compound: O=C(c1ccccc1)N1CC(CNC(c2ccc(C(F)(F)F)cc2)c2cccnc2)C1 (centres undefined)
- IC90 [1]: 142 nM
- pIC50 [2]: 7.17
- pIC50 [3]: < 4.00

Compound: O=C(c1cc[nH]n1)N1CCC(NC(c2ccc(C(F)(F)F)cc2)c2cccnc2)CC1 (centres undefined)
- IC90 [1]: 570 nM
- pIC50 [2]: 6.53
- pIC50 [3]: < 4.00

Compound: N#Cc1ccc(C(c2cccnc2)N2CCC(NC(=O)c3c(F)cccc3C(F)(F)F)CC2)cc1 (centres undefined)
- IC90 [1]: 10.4 nM
- pIC50 [2]: 8.35
- pIC50 [3]: < 4.00

Compound: Cc1n[nH]c(C)c1C(=O)N1CCC(NC(c2ccc(C(F)(F)F)cc2)c2cccnc2)CC1 (centres undefined)
- IC90 [1]: 150 nM
- pIC50 [2]: 7.58
- pIC50 [3]: < 4.00

Compound: Fc1cccc(F)c1N1CCC(NC(c2ccc(C(F)(F)F)cc2)c2cccnc2)CC1 (centres undefined)
- IC90 [1]: 54.5 nM
- pIC50 [2]: 7.74
- pIC50 [3]: 4.27

Compound: Cc1nnc(N2CCC(NC(c3ccc(C(F)(F)F)cc3)c3cccnc3)CC2)s1 (centres undefined)
- IC90 [1]: 168 nM
- pIC50 [2]: 7.16
- pIC50 [3]: < 4.00

Compound: Cc1ncsc1C(=O)N1CCC(NC(c2ccc(C(F)(F)F)cc2)c2cncs2)CC1 (centres undefined)
- IC90 [1]: 240 nM
- pIC50 [2]: 7.16
- pIC50 [3]: < 4.00

Compound: N#Cc1ccnc(N2CCC(NC(c3ccc(C(F)(F)F)cc3)c3cccnc3)CC2)n1 (centres undefined)
- IC90 [1]: 120 nM
- pIC50 [2]: 7.51
- pIC50 [3]: 4.30

Compound: CC(C)(C)OC(=O)N1CC(CNC(c2ccc(C(F)(F)F)cc2)c2cccnc2)C1 (centres undefined)
- IC90 [1]: 332 nM
- pIC50 [2]: 6.92
- pIC50 [3]: < 4.00

Compound: Fc1cc(Cl)ccc1C(NC1CCN(c2c(F)cccc2F)CC1)c1cccnc1 (centres undefined)
- IC90 [1]: 33.5 nM
- pIC50 [2]: 7.90
- pIC50 [3]: 4.25

Compound: Cn1cc(C(=O)N2CCC(NC(c3ccc(C(F)(F)F)cc3)c3cccnc3)CC2)c(C(F)(F)F)n1 (centres undefined)
- IC90 [1]: 280 nM
- pIC50 [2]: 7.00
- pIC50 [3]: 4.11

Compound: Cc1noc(N2CCN(C(c3cncnc3)c3ccc(C(F)(F)F)cc3F)CC2)n1 (centres undefined)
- IC90 [1]: 282 nM
- pIC50 [2]: 6.90
- pIC50 [3]: < 4.00

Compound: Cc1n[nH]c(C)c1C(=O)NC1CCN(C(c2ccc(C#N)cc2)c2cccnc2)CC1 (centres undefined)
- IC90 [1]: 518 nM
- pIC50 [2]: 6.73
- pIC50 [3]: < 4.00

Compound: Cn1cc(C(=O)NC2CCN(C(c3ccc(C#N)cc3)c3cccnc3)CC2)c(C(F)(F)F)n1 (centres undefined)
- IC90 [1]: 77.5 nM
- pIC50 [2]: 7.55
- pIC50 [3]: < 4.00

Compound: Nc1nc(N2CCN(C(c3cccnc3)c3ccc(C(F)(F)F)cc3F)CC2)no1 (centres undefined)
- IC90 [1]: 92 nM
- pIC50 [2]: 7.44
- pIC50 [3]: 4.24

Compound: FC(F)(F)c1ccc(C(NC2CN(c3ncccn3)C2)c2cccnc2)cc1 (centres undefined)
- IC90 [1]: 756 nM
- pIC50 [2]: 6.94
- pIC50 [3]: < 4.00

Compound: FC(F)(F)c1ccc(C(NC2CCN(c3cncs3)CC2)c2cccnc2)cc1 (centres undefined)
- IC90 [1]: 118 nM
- pIC50 [2]: 7.60
- pIC50 [3]: 4.22

Compound: CC(C)(C)OC(=O)N1CCC(NC(c2ccc(C(F)(F)F)cc2)c2cncs2)CC1 (centres undefined)
- IC90 [1]: 19.5 nM
- pIC50 [2]: 8.15
- pIC50 [3]: 4.21

Compound: Cc1cc(C(=O)N2CCC(NC(c3ccc(C(F)(F)F)cc3)c3cccnc3)CC2)n(C(C)(C)C)n1 (centres undefined)
- IC90 [1]: 150 nM
- pIC50 [2]: 7.32
- pIC50 [3]: 4.14

Compound: Cc1cc(C(=O)N2CCC(NC(c3ccc(C(F)(F)F)cc3)c3cccnc3)CC2)on1 (centres undefined)
- IC90 [1]: 779 nM
- pIC50 [2]: 6.44
- pIC50 [3]: < 4.00

Compound: O=C(c1ccccc1)N1CCC(NC(c2ccc(C(F)(F)F)cc2)c2cncs2)CC1 (centres undefined)
- IC90 [1]: 106 nM
- pIC50 [2]: 7.48
- pIC50 [3]: 4.12

Compound: Cc1nocc1C(=O)N1CCC(NC(c2ccc(C(F)(F)F)cc2)c2cccnc2)CC1 (centres undefined)
- IC90 [1]: 584 nM
- pIC50 [2]: 6.78
- pIC50 [3]: < 4.00

Compound: CC(C)(C)OC(=O)N1CC(NC(c2ccc(C(F)(F)F)cc2)c2cccnc2)C1 (centres undefined)
- IC90 [1]: 702 nM
- pIC50 [2]: 7.02
- pIC50 [3]: 4.20

Compound: Cn1cc(C(=O)NC2CCN(C(c3ccc(C#N)cc3)c3cccnc3)CC2)cn1 (centres undefined)
- IC90 [1]: 300 nM
- pIC50 [2]: 6.77
- pIC50 [3]: 4.26

Compound: OC(c1ccc(C(F)(F)F)cc1)(c1cncc(F)c1)c1ccc(Cl)cc1F (centres undefined)
- IC90 [1]: 422 nM
- pIC50 [2]: 6.71
- pIC50 [3]: 4.29

Compound: FC(F)(F)c1ccc(C(NC2CCN(c3ncccn3)CC2)c2cncs2)cc1 (centres undefined)
- IC90 [1]: 64 nM
- pIC50 [2]: 7.70
- pIC50 [3]: 4.11

Compound: CC(C)(C)OC(=O)N1CCN(C(c2cccnc2)c2ccc(C#N)cc2F)CC1 (centres undefined)
- IC90 [1]: 940 nM
- pIC50 [2]: 6.27
- pIC50 [3]: < 4.00

Compound: COc1cncc(C(O)(c2ccc(C(F)(F)F)cc2)c2ccc(Cl)cc2F)c1 (centres undefined)
- IC90 [1]: 318 nM
- pIC50 [2]: 6.91
- pIC50 [3]: 4.17

Compound: Cn1cc(C(=O)N2CCC(NC(c3ccc(C(F)(F)F)cc3)c3cccnc3)CC2)cn1 (centres undefined)
- IC90 [1]: 655 nM
- pIC50 [2]: 6.42
- pIC50 [3]: < 4.00

Compound: Cc1cc(C(=O)NC2CCN(C(c3ccc(C#N)cc3)c3cccnc3)CC2)n(C(C)(C)C)n1 (centres undefined)
- IC90 [1]: 220 nM
- pIC50 [2]: 7.21
- pIC50 [3]: < 4.00

Compound: FC(F)(F)c1ccc(C(NC2CCN(c3ccccc3C(F)(F)F)CC2)c2cccnc2)cc1 (centres undefined)
- IC90 [1]: 31.5 nM
- pIC50 [2]: 8.05
- pIC50 [3]: 4.34

Compound: OC(c1cccnc1)(c1cncc(F)c1)c1ccc(Cl)cc1F (centres undefined)
- IC90 [1]: 868 nM
- pIC50 [2]: 6.64
- pIC50 [3]: < 4.00

Compound: Cn1ccnc1C(=O)NC1CCN(C(c2ccc(C#N)cc2)c2cccnc2)CC1 (centres undefined)
- IC90 [1]: 482 nM
- pIC50 [2]: 6.62
- pIC50 [3]: < 4.00

Compound: CC(C)(C)C(=O)N1CCC(NC(c2ccc(C(F)(F)F)cc2)c2cncs2)CC1 (centres undefined)
- IC90 [1]: 94 nM
- pIC50 [2]: 7.47
- pIC50 [3]: < 4.00
